According to patent publication US8906860B2, “Methods and compositions inhibiting tumor cell proliferation” (The Board of Trustees of the University of Illinois, priority 2011, dated 2014):
Where two headings read alike, the source gives them in different places. Square brackets hold non-standard residues; d marks the D form. Peptide text beside a SMILES is read from it.

Experiments:
[1] = test system: p53 null thymic lymphoma cell lines L1 and L2; test: In vitro peptide treatment of p53 null thymic lymphoma cells (viability, TUNEL); type: cell-based, mouse; settings: one day after treatment
p53 null sarcoma cells [2] = test: In vitro peptide treatment of p53 null sarcoma cells (viability, TUNEL); type: cell-based, mouse; settings: 24 hours
p53 null sarcoma cells [3] = test: Lung colonization of intravenously injected p53 null sarcoma cells in SCID mice; type: in vivo, mouse; settings: 5 mg/kg intraperitoneal every other day, 10 injections
Experimental: (§1) These experiments were performed to determine if modifying the termini conferred any advantages on these peptides when administered to an animal. Both wild type ARF 26-44 (rrrrrrrrrKFVRSRRPRTASCALAFVN) (SEQ ID NO 10) and mutant ARF 37-44 (rrrrrrrrrSCALAFVN) (SEQ ID NO 21) peptides were synthesized by Genemed Synthesis Inc. (San Antonio, Tex.). The N-terminus of each peptide was fused with nine D-Arg(r) residues. Both wild type and mutant peptides were blocked with amidation on C-terminus and acetylation on N-terminus. For sarcoma cells, mice were treated with 5 mg/kg body weight of peptide every other day for 10 times. For lymphoma cells, mice were treated with 2.5 mg/kg body weight of peptide every other day for 10 times.
To test the therapeutic effect of the ARF-peptide on p53 null tumors in vivo, p53 null lymphoma/sarcoma cells were introduced into the circulation of SCID mice through intravenous injection. ICR SCID mice were obtained from Taconic Farms (Germantown, N.Y.). Both p53 null sarcoma and lymphoma cells were stably transduced before injection with lentivirus carrying a gene conferring luciferase expression. Specifically, cells were stably transduced with pFU-L2G luciferase construct obtained from Sanjiv Sam Gambhir (M. D., Ph.D) of Stanford University as optimized by Dr. Huiping Liu (Liu et al., Proc Natl Acad Sci USA, 107: 18115-18120). This construct enabled expression of both the bioluminescence and green fluorescence protein. eGFP positive cells were sorted by Beckman Coulter MoFlo. 3×10^6 cells were suspended in cold PBS and injected through the tail vein of SCID mice. Live animal imaging was performed using an IVIS Spectrum optical imaging machine (Caliper Life Sciences, Alameda, Calif.). […] Mice were randomized into three groups and were treated with PBS, mutant-peptide or the wild type ARF-peptide for 10 injections every other day by intraperitoneal injection. […] The mice were sacrificed and lung sections were analyzed for tumor colonies. […]

[4] = test system: p53 null thymic lymphoma cells; test: Kidney colonization of intravenously injected p53 null thymic lymphoma cells in SCID mice; type: in vivo, mouse; settings: 2.5 mg/kg intraperitoneal every other day, 10 injections
Experimental: as §1
To test the therapeutic effect of the ARF-peptide on p53 null tumors in vivo, p53 null lymphoma/sarcoma cells were introduced into the circulation of SCID mice through intravenous injection. ICR SCID mice were obtained from Taconic Farms (Germantown, N.Y.). Both p53 null sarcoma and lymphoma cells were stably transduced before injection with lentivirus carrying a gene conferring luciferase expression. Specifically, cells were stably transduced with pFU-L2G luciferase construct obtained from Sanjiv Sam Gambhir (M. D., Ph.D) of Stanford University as optimized by Dr. Huiping Liu (Liu et al., Proc Natl Acad Sci USA, 107: 18115-18120). This construct enabled expression of both the bioluminescence and green fluorescence protein. eGFP positive cells were sorted by Beckman Coulter MoFlo. 3×10^6 cells were suspended in cold PBS and injected through the tail vein of SCID mice. Live animal imaging was performed using an IVIS Spectrum optical imaging machine (Caliper Life Sciences, Alameda, Calif.). […] Mice were randomized into three groups and were treated with PBS, mutant-peptide or the wild type ARF-peptide for 10 injections every other day by intraperitoneal injection. […] The mice were sacrificed and lung sections were analyzed for tumor colonies. […] For the p53 null thymic lymphoma cells, metastatic growth in kidney was observed, consistent with murine thymic lymphoma cells having a tendency to colonize kidney, liver and spleen (Aoudjit et al., 1998, Blood, 91: 623-629).

S2 cells = settings: 24 hours
Experimental: TUNEL assay was used to measure apoptosis in S2 cells treated with WT-blocked, mutant-blocked or WT-unblocked (D-Arg)9-p19^ARF 26-44 peptides. (D-Arg)9-p19^ARF 26-44 peptide treatment of cells was performed in 8-well chamber slides for TUNEL staining. On Day 0, 20,000 cells per well were seeded in the 8-well chamber slides. On Day 1, slides were replenished with fresh media containing one of the following concentrations of either WT-blocked, mutant-blocked or WT-unblocked (D-Arg)9-p19^ARF 26-44 peptides: 10, 15, 25, 30, 40 and 70 μM for 24 hours. On Day 2, TUNEL staining was performed following the manufacture's protocol (ApopTag® Fluorescein In Situ Apoptosis Detection Kit from CHEMICON® International, S7110). The percent of apoptosis of S2 cells (±SD) was measured by counting the number of TUNEL-positive cells (green fluorescence) per 1,000 nuclei as visualized by DAPI (blue fluorescence) counterstaining. The experiment was repeated in a second experiment using the same protocol. Statistical analysis and EC50 calculation were performed using GraphPad Prism software.

## CC(=O)N[C@H](CCCNC(=N)N)C(=O)N[C@H](CCCNC(=N)N)C(=O)N[C@H](CCCNC(=N)N)C(=O)N[C@H](CCCNC(=N)N)C(=O)N[C@H](CCCNC(=N)N)C(=O)N[C@H](CCCNC(=N)N)C(=O)N[C@H](CCCNC(=N)N)C(=O)N[C@H](CCCNC(=N)N)C(=O)N[C@H](CCCNC(=N)N)C(=O)N[C@@H](CCCCN)C(=O)N[C@@H](Cc1ccccc1)C(=O)N[C@H](C(=O)N[C@@H](CCCNC(=N)N)C(=O)N[C@@H](CO)C(=O)N[C@@H](CCCNC(=N)N)C(=O)N[C@@H](CCCNC(=N)N)C(=O)N1CCC[C@H]1C(=O)N[C@@H](CCCNC(=N)N)C(=O)N[C@H](C(=O)N[C@@H](C)C(=O)N[C@@H](CO)C(=O)N[C@@H](CS)C(=O)N[C@@H](C)C(=O)N[C@@H](CC(C)C)C(=O)N[C@@H](C)C(=O)N[C@@H](Cc1ccccc1)C(=O)N[C@H](C(=O)N[C@@H](CC(N)=O)C(N)=O)C(C)C)[C@@H](C)O)C(C)C [WT Blocked, rrrrrrrrrKFVRSRRPRTASCALAFVN] (Ac-[dR][dR][dR][dR][dR][dR][dR][dR][dR]KFVRSRRPRTASCALAFVN-NH2)
[1]
  Apoptosis of cells after peptide treatment: underwent apoptosis
  Number of viable cells versus mutant-peptide or PBS: much less
p53 null sarcoma cells [2]
  Viability and apoptosis (TUNEL) after peptide treatment: A similar effect was observed in p53 null sarcoma cells
p53 null sarcoma cells [3]
  Number of lung tumor colonies larger than 100 μm×100 μm: A reduced number of tumor colonies
  Tumors on the surface of the lungs: fewer tumors were observed on the surface of the lungs
p53 null sarcoma cells [3]; 20 days after inoculation
  Luciferase signal from mice: significantly reduced
[4]
  Kidney tumor mass at sacrifice: retained their original size and structure, with only a small white mass beginning to build up on the surface of the kidney
[4]; around 20 days after inoculation
  Luciferase signal from colonized lymphoma cells: emitted very little fluorescence
S2 cells; Experiment 1, 10 μM/Well
  % of TUNEL Positive S2 Cells, Mean: 0.46%
S2 cells; Experiment 1, 25 μM/Well
  % of TUNEL Positive S2 Cells, Mean: 20.27%
S2 cells; Experiment 1, 30 μM/Well
  % of TUNEL Positive S2 Cells, Mean: 57.78%
S2 cells; Experiment 1, 40 μM/Well
  % of TUNEL Positive S2 Cells, Mean: 98.48%
S2 cells; Experiment 2, 10 μM/Well
  % of TUNEL Positive S2 Cells, Mean: 12.91%
S2 cells; Experiment 2, 15 μM/Well
  % of TUNEL Positive S2 Cells, Mean: 13.6%
S2 cells; Experiment 2, 25 μM/Well
  % of TUNEL Positive S2 Cells, Mean: 39.48%
S2 cells; Experiment 2, 30 μM/Well
  % of TUNEL Positive S2 Cells, Mean: 47.52%
S2 cells; Experiment 2, 40 μM/Well
  % of TUNEL Positive S2 Cells, Mean: 70.17%
S2 cells; S2 cells, 10-70 μM
  Apoptosis induction compared between peptides (TUNEL): induced significantly higher apoptosis compared to WT-unblocked and mutant-blocked
